Entries after “also recorded” stand apart in the source; their conditions may differ.
Legend:
wild type seedlings = experiment: Anthocyanins content (spectrophotometric); type: in vivo, A. thaliana; design: key to Antho: anthocyanin content as A530 - 2.2*A652; conditions: accumulation of anthocyanes; +P control 46, −P 1008
Experimental: Anthocyanins were extracted with propanol:HCl:H2O (81:1:18) for 5 min at room temperature and 3 min at 100° C. Samples are centrifuged for 10 min at 4° C. Supernatants were collected and absorption measured at 530 nm and […]. Anthocyanin content was calculated as A530-2.2A652 (Lange et al., 1971).

A. thaliana = experiment: Root growth (primary root) of plants on high phosphate medium supplied with compound; type: in vivo; conditions: for Root Growth: expressed as a percentage having regard to a control, +P control 100, −P 20; for primary root growth (in words): high phosphate medium supplied with compound
From the text: In response to phosphate starvation, the primary root growth is inhibited (Svistoonoff et al., 2007).

[1] = tested on: phosphate transporter PHT1;4; experiment: 8′G::GUS, follow-up of the expression of the phosphate transporter PHT1;4 (GUS staining); type: in vivo, A. thaliana; conditions: compound added to the cultivation medium
From the text: 8′G cell line was obtained as follows: for the PHT1;4 promoter fusion, a 2 kb region upstream of the ORF of PHT1;4 was cloned in the vector pENTR/D-TOPO (pENTRT™/D-TOPO® Cloning Kit, ref. K2400-20, Invitrogen) and transferred to pKGWFS7 (Karimi et al., 2002) by recombination using Gateway BP (Gateway® BP Clonase® enzyme mix, ref. 11789-013, Invitrogen) and LR Clonase enzyme mixes (LR Clonase® II Plus enzyme, ref. 12538-120, Invitrogen), respectively, to produce the pPHT1;4:GUS-GFP gene fusion. This fusion was then introduced into the Arabidopsis genome via the Agrobacterium-mediated transformation system (Logemann et al., 2006).
Plants were examined for GUS activity by dipping the samples in a GUS staining solution (50 mM sodium phosphate buffer pH 7.0; 0.01% Triton X-100, 1 mM K3Fe(CN)6, 1 mM K4Fe(CN)6, 1 mg/ml 5-dromo-4-chloro-3-indolyl (3-D-GLUCURONIDE (X-Gluc A) and incubated at 37° C. over-night. After staining, the plants were fixed 2 hours in 50 mM sodium phosphate buffer pH 7.0; 1% glutaraldehyde; 4% formaldehyde.

Structure (SMILES)	Antho (wild type seedlings)	Root Growth (A. thaliana)	PHT1;4 expression (in words, summary of analogues) [1]	primary root growth (in words) (A. thaliana)
CC1(C)CC(=O)C(=CNc2cc(Cl)cc(Cl)c2)C(=O)C1 [#4]	210	50 % of control		
CC1(C)CC(=O)C(=CNc2cccnc2)C(=O)C1 [#16]	431	40 % of control		
COc1cccc(NC=C2C(=O)CC(C)(C)CC2=O)c1 [#47]	324	70 % of control	induced PHT 1;4 expression; also recorded: induce expression of the Pht1;4 gene	without altering the root growth; also recorded: do not induce a reduction of the root growth
CC1(C)CC(=O)C(=CNc2ccc(I)cc2)C(=O)C1 [#8]	37	56 % of control		
Cc1cccc(NC=C2C(=O)CC(C)(C)CC2=O)c1 [#7]	172	75 % of control	induced PHT 1;4 expression	without altering the root growth
CCC1CC(=O)C(=CNc2cc(F)cc(F)c2)C(=O)C1 (centres unmarked) [#32]	103	13 % of control		
CC1(C)CC(=O)C(=CNc2ccccn2)C(=O)C1 [#15]	283	40 % of control		
CC(=O)c1ccc(NC=C2C(=O)CC(C)(C)CC2=O)cc1 [#34]	289	59 % of control		
Cc1ccc(NC=C2C(=O)CC(C)(C)CC2=O)c(C)c1 [#9]	130	71 % of control		
Cc1ccnc(NS(=O)(=O)c2ccc(NC=C3C(=O)CC(C)(C)CC3=O)cc2)n1 [#26]	640	6 % of control		
O=C1CCCC(=O)C1=CNc1ccc(Cl)cc1Cl [#44]	123	68 % of control	induced PHT 1;4 expression; also recorded: induce expression of the Pht1;4 gene	without altering the root growth; also recorded: do not induce a reduction of the root growth
CC1(C)CC(=O)C(=CNc2ccccc2C(N)=O)C(=O)C1 [#39]	183	60 % of control		
CC(=NO)c1ccc(NC=C2C(=O)CC(C)(C)CC2=O)cc1 [#25]	405	63 % of control		
CC1(C)CC(=O)C(=CNc2ccc(Br)cc2)C(=O)C1 [#2]	258	59 % of control		
CC1(C)CC(=O)C(=CNc2ccc(F)c(Cl)c2)C(=O)C1 [#3]	806	41 % of control		
Cc1cccc(CN/C=C2/C(=O)Nc3ccccc32)n1 [#18]	195	88 % of control		
CC1(C)CC(=O)C(=CNc2ccncc2)C(=O)C1 [#13]	513	42 % of control		
O=C1CCCC(=O)C1=CNc1ccc(Cl)c(Cl)c1 [#43]	186	67 % of control	induced PHT 1;4 expression; also recorded: induce expression of the Pht1;4 gene	without altering the root growth; also recorded: do not induce a reduction of the root growth

Structure (SMILES)	Antho (wild type seedlings)	Root Growth (A. thaliana)	PHT1;4 expression (in words, summary of analogues) [1]	primary root growth (in words) (A. thaliana)
CC1(C)CC(=O)C(=CNc2ncc(C(F)(F)F)cc2Cl)C(=O)C1 [#20]	142	72 % of control	induced PHT 1;4 expression; also recorded: induce expression of the Pht1;4 gene	without altering the root growth; also recorded: do not induce a reduction of the root growth
Cc1ccc(NC=C2C(=O)CC(C)(C)CC2=O)cc1 [#1]	274	64 % of control	induced PHT 1;4 expression	without altering the root growth
O=C1CC(c2ccccc2)CC(=O)C1=CNCc1ccccn1 (centres unmarked) [#17]	408	60 % of control		
CC1(C)CC(=O)C(=CNCc2ccccn2)C(=O)C1 [#11]	163	63 % of control	induced PHT 1;4 expression	without altering the root growth
CC1(C)CC(=O)C(=CNc2ccc(O)cc2)C(=O)C1 [#38]	206	60 % of control		
CC1(C)CC(=O)C(=CNc2cccc([N+](=O)[O-])c2)C(=O)C1 [#24]	240	54 % of control		
Cc1c(Cl)cccc1NC=C1C(=O)CC(C)(C)CC1=O [#12]	850	57 % of control		
COc1ccc(NC=C2C(=O)CC(C)(C)CC2=O)cc1OC [#37]	204	69 % of control	induce expression of the Pht1;4 gene	do not induce a reduction of the root growth
Cc1ccc(NC=C2C(=O)CC(C)(C)CC2=O)nc1 [#19]	193	47 % of control		
CSc1ccc(NC=C2C(=O)CC(C)(C)CC2=O)cc1 [#35]	208	60 % of control		
CC1(C)CC(=O)C(=CNc2ccc(Br)cc2)C(=O)C1 [#27]	43	98 % of control	induced PHT 1;4 expression; also recorded: induce expression of the Pht1;4 gene	without altering the root growth; also recorded: do not induce a reduction of the root growth
Cc1ccc(NC=C2C(=O)CC(C)(C)CC2=O)cc1Cl [#6]		53 % of control		
CC1(C)CC(=O)C(=CNc2ccc(F)c(F)c2)C(=O)C1 [#14]	150	61 % of control	induced PHT 1;4 expression	without altering the root growth
CC1(C)CC(=O)C(=CNc2ccc(S(C)(=O)=O)cc2)C(=O)C1 [#36]	235	58 % of control		
O=C1CCCC(=O)C1=CNc1cc(Cl)cc(Cl)c1 [#33]	167	59 % of control		
CC1(C)CC(=O)C(=CNc2ccc(F)cc2)C(=O)C1 [#5]	110	73 % of control	induced PHT 1;4 expression; also recorded: induce expression of the Pht1;4 gene	without altering the root growth; also recorded: do not induce a reduction of the root growth
CC1(C)CC(=O)C(=CNc2cccc(Cl)c2)C(=O)C1 [#10]	225	41 % of control		
O=C1CC(c2ccccc2)CC(=O)C1=CNc1ccccc1 (centres unmarked) [#28]	247	100 % of control	induce expression of the Pht1;4 gene	do not induce a reduction of the root growth
